# Tested on: white blood cells from a patient suffering from CMML
# Assay: Activity in vitro on Chronic Myelomonocytic Leukaemia (CMML) cells
# Type: cell-based, human
# Conditions: 10 μM once, improved liposomal form, 72 h of treatment
# Protocol: The cells purified from blood samples of patients suffering from Chronic Myelomonocytic Leukaemia (CMML) were obtained by the Clinical Haematology Centre and the Biotherapy Centre of the Saint Eloi Hospital (CHU de Montpellier). Culture was carried out by the technique of seeding on a feed layer. […] The CMML cells were cultured on cell lines originating from human embryo spinal cord (17).
# The white blood cells are isolated from a blood sample collected from a patient suffering from CMML. The cells are treated once with 10 μM of molecule 2.b in improved liposomal form 24 hours after culturing by seeding on a feed layer (17).
# The controls are cells treated with empty liposomes: the upper left hand photograph marked with the letter A was taken after 48 h of treatment and the lower left hand photograph with the letter B after 72 h of treatment.
# For the cells treated with 2.b, the upper right hand photograph marked with the letter C was taken after 48 h of treatment and the lower right hand photograph with the letter D after 72 h of treatment.
smiles,measurement,value
"CC(=O)OC1C=C2CC(OC(=O)C3COC(C)(C)O3)CCC2(C)C2CCC3(C)C(C(C)CCCC(C)C)CCC3C12 (stereo not shown) [Molecule 2.b, 7-acetoxy-10,13-dimethyl-17-(6-methylheptan-2-yl)-2,3,4,7,8,9,10,11,12,13,14,15,16,17-tetradecahydro-1H-cyclopenta[a]phenanthren-3-yl 2,2-dimethyl-1,3-dioxolane-4-carboxylate]",effect on cell multiplication relative to the control,Cell multiplication is slowed considerably

# Source: patent publication US10800806B2, “Sterol derivatives and use thereof for treating diseases involving transformed astrocyte cells or for treating malignant haemopathies” (BETA INNOV, priority 2012, dated 2020)
